From patent US20250134860A1, “NOVEL COMPOUND, AND COMPOSITION FOR PREVENTING, ALLEVIATING OR TREATING BACTERIAL INFLAMMATION AND INFLAMMASOME-MEDIATED DISEASES, COMPRISING SAME AS ACTIVE INGREDIENT” (Quorum Bio Co., Ltd., priority 2022, published 2025)
“And” between values parts separate entries of the source, which are not always exact repeats. Equal entries are not always repeated.

Tests used:
[1] = General symptoms and body weight in the rat micronucleus study; assay type: in vivo; conditions: positive control 20 mg/kg/day P.O.
Experimental: In addition, body weight was measured on the day of administration start and bone marrow collection to confirm presence/absence of changes due to administration of the substance, and the results are shown in Table 4 below.

[2] = system: Sprague-Dawley rat bone marrow cells; test: Rat micronucleus test; conditions: positive control 20 mg/kg/day P.O., 24 hours after dosing
Experimental: Hair was removed from the administration site (subcutaneous) of the SD rats, the administration concentration of the example compounds were set to a low dose (500 mg/kg/day), a medium dose (1000 mg/kg/day), and a high dose (2000 mg/kg/day), and administered subcutaneously to the left and right […] of the test system (10 ml/kg/day each), and the compound was administered subcutaneously in divided doses to the left and right […] of the test system (10 ml/kg/day each).
24 hours after the second administration of the test substance, the femur was removed from each group to collect bone marrow cells. 0.5 mL of 10% neutral formalin was added to the bone marrow cell suspension, fixed for 5 minutes, centrifuged for 5 minutes (4° C., 1,000 rpm, Micro17TR, Hanil Science Industrial, Republic of Korea) to remove the supernatant. Then, 0.3 mL of 10% neutral formalin was added to the precipitated bone marrow cells, suspended, filtered through a cell strain, and transferred to a storage tube. The fixed bone marrow cell suspension was dropped onto a cover glass, and then covered with a slide glass coated with 20 μL of 0.05% acridine orange to prepare an observation slide. The observation slide was observed under a microscope (600× magnification, BX51, Olympus, Japan).
As an indicator of bone marrow cell proliferation inhibition, 500 total red blood cells per individual were observed, and the ratio of polychromatic red blood cells to total red blood cells (PCE/(PCE+NCE)) was calculated. As a positive control, cyclophosphamide (Cas No: 50-18-0) was administered at a dose of 20 mg/kg/day.

[3] = Plasma stability in human plasma (LC-MS/MS); assay type: in vitro ADME; conditions: 37° C., 0, 30, 60, 120, 240 minutes
Experimental: (§1) The compounds of Examples 1-2 and Comparative Example, and the substance used as the positive control (Eucatropine, Loterpresnol) were dissolved in DMSO to prepare a stock solution having a concentration of 10 mM. The stock solution of each test substance was then diluted to prepare 0.2 mM and 1 mM working solutions and used for the test (For the comparative example compound, 70% acetonitrile was used as a solvent, and for the compound of Example 1-2, 50% acetonitrile was used as a solvent).
(§2) The positive control and the standard solution of the test substance were placed in tubes containing two types of plasma (human and rat) at concentrations of 1 μM and 5 μM, respectively, and then incubated at 37° C. for a prescribed time (0, 30, 60, 120, 240 minutes) while shaking and mixing. At each time point, the mixture sample was dispensed in 100 μl increments into a cell culture plate (96-well plate) containing 400 μl of quench reagent to terminate the test, After centrifugation (5000×g, 10 min), 100 μl of the supernatant was taken out, mixed with 200 μl of ultrapure water, and the solution was then injected into a LC-MS/MS system to analyze the drug in each time zone. Thereby, the plasma stability of the compounds of Comparative Example and Example 1-2 was evaluated.

P. gingivalis = test: Inhibitory effect on P. gingivalis biofilm formation (crystal violet, OD590nm); assay type: cell-based, Porphyromonas gingivalis; conditions: 48 hours; for biofilm formation of P. gingivalis increased by DPD: DPD 10 μM + compound 0.002, 0.02, 0.2, 2 μM, anaerobic, OD590nm
[4] = Plasma stability in rat plasma (LC-MS/MS); assay type: in vitro ADME; conditions: 37° C., 0, 30, 60, 120, 240 minutes
Experimental: as §1, §2

[5] = system: gingipain genes (rgpA, rgpB, kgp); test: Inhibitory effect on gingipain expression of P. gingivalis (RT-qPCR); assay type: cell-based, Porphyromonas gingivalis; conditions: 48 hours
Experimental: The compounds of Examples were respectively treated onto the medium cultured with P. gingivalis, and the expression levels of three gingipain proteins (lysine-gingipain (Kgp), arginine-gingipain A (RgpA), and arginine-gingipain B (RgpB)) produced by P. gingivalis, which are major virulence factors and proteolytic enzymes, were confirmed.
The culture medium containing 10 μM of DPD (4,5-dihydroxy-2,3-pentane dione), which is a precursor of the bacterial signal substance (Autoinducer-2), and the culture medium containing 2 μM of the example compound or not were respectively dispensed into a cell culture plate (48 well plate), and then P. gingivalis (2×10^8 cell/ml) were inoculated for each group. The culture medium cultured with bacteria was cultured at 37° C. under anaerobic conditions (10% H2, 10% CO2, and 80% N2) for 48 hours.
After 48 hours, each culture medium was centrifuged at 13,000 rpm for 1 minute to remove the supernatant, and total RNA was extracted using easy-BLUE™ Total RNA Extraction kit (iNtRON Biotechnology, Sungnam, Korea) to synthesize cDNA, and then the expression of the gingipain gene was confirmed by real-time PCR method. cDNA was synthesized using AccuPower® CycleScript RT PreMix dN6 (Bioneer, Daejeon, Korea), and real-time (quantitative) reverse transcription PCR (RT-qPCR) was carried out using Power SYBR™ Green PCR Master Mix (Applied Biosystems, Foster City, CA, USA).
RT-qPCR amplification conditions were as follows: after enzyme activation at 95° C. for 3 minutes, denaturation at 95° C. for 10 seconds and primer annealing at 60° C. for 30 seconds were repeated 40 times, and analysis was performed using a Bio-Rad CFX Connect Real-Time PCR Detection System (Bio-Rad, Hercules, CA, USA). To normalize the expression level of the gingipain gene, the 16s rRNA gene was used, and the gene expression level was calculated using the Comparative Ct Method (ΔΔCt), which is shown in FIGS. 5a to 5c.

SMILES: O=P1(N(CCCl)CCCl)NCCCO1 (stereo not shown) [CPA, cyclophosphamide]
- Body weight (g) 1 day after 2nd dosing, Mean ([1]; administered once, group mean): 278.9 g
- Body weight (g) 1 day after 2nd dosing ([1]; administered once, individual animals 1501-1505): 279.4 g and 281.5 g
- Body weight (g) before 1st dosing, Mean ([1]; group mean): 266.8 g
- Body weight (g) before 1st dosing ([1]; individual animals 1501-1505): 282.2 g
- MNPCE/PCE, %(Mean) ([2]; group mean): 3.060%
- PCE/(PCE+NCE), %(Mean) ([2]; group mean): 33.5%
- PCE/(PCE+NCE): PCE count ([2]; individual animals, per 500 total red blood cells): 166 and 170
- MNPCE/PCE: MNPCE count ([2]; individual animals, per 4,000 PCE): 150 and 154 and 167 (2×)

SMILES: O=C1O/C(=C(\Br)c2ccccc2)c2ccccc21 [Comparative Example, (Z)-3-(bromo (phenyl)methylene) isobenzofuran-1 (3H)-one, reference compound]
- amount of the compound remaining in the plasma [3]: decreased over time
- biofilm formation of P. gingivalis increased by DPD (P. gingivalis): inhibited in a concentration-dependent manner
- amount of the compound remaining in the plasma [4]: decreased over time

SMILES: CC(=O)C(=O)C(O)CO (stereo not shown) [DPD, 4,5-dihydroxy-2,3-pentanedione, reference compound]
- biofilm formation of P. gingivalis (P. gingivalis; DPD 10 μM alone compared to medium with PBS (CT)): significantly increased
- expression levels of three gingipain genes (rgpA, rgpB, kgp) ([5]; DPD 10 μM alone compared with untreated control): increased more than in the control group

SMILES: CN1C(=O)c2ccccc2C1=C(c1ccccc1)c1ccccc1 [Example 1-1, 3-(diphenylmethylene)-2-methylisoindolin-1-one]
- biofilm formation of P. gingivalis increased by DPD (P. gingivalis): inhibited in a concentration-dependent manner
- expression levels of three gingipain genes (rgpA, rgpB, kgp) increased by DPD ([5]; DPD 10 μM + compound 2 μM, normalized to 16s rRNA): reduced

SMILES: COc1ccc(C(=C2c3ccccc3C(=O)N2C)c2ccc(OC)cc2)cc1 [Example 1-3, 3-(bis(4-methoxyphenyl)methylene)-2-methylisoindolin-1-one]
- biofilm formation of P. gingivalis increased by DPD (P. gingivalis): inhibited in a concentration-dependent manner
